Assay results reported in patent publication US7935525B2, “Inhibition of ATF2 activity to treat cancer” (Mount Sinai School of Medicine, priority 2001, dated 2011).
No end group written: not given here.

Key:
LU1205 cells = experiment: Apoptosis by FACS (hypodiploid fraction); assay type: cell-based, human; conditions: peptide-expressing LU1205
Protocol: (§1) Treatment and apoptosis studies of stably transfected melanoma cells. Cells were exposed to UVC at 75 J/m^2 as previously described (Ronai, Z., et al., Oncogene 1998; 16:523-531). SB203580 (1-10 μM) (Calbiochem®, San Diego, Calif.), NCS (50-100 ng/ml) and mitomycin C (MMC) (0.2-1 μM) were used to treat melanoma cells. Flow cytometric analysis was performed on a FACSCalibur™ flow cytometer (Becton Dickinson) using CellQuest™ software as described previously (Nicoletti et al., J. Immunol. Methods 1991; 139:271-279). Cells were pelleted and resuspended in 0.5 ml of hypotonic buffer with 0.1% Triton X-100 containing PI (40 μg/ml) and DNase-free RNase A (1 mg/ml). Cells were incubated at 37° C. for 30 min and analyzed on a FACSCalibur™ flow cytometer (Becton Dickinson). The percentage of cells to the left of the diploid G0/1 peak, characteristic of hypodiploid cells that have lost DNA, was defined as the percentage of apoptotic cells. Analysis was performed with light scatter gating. Surface expression of Fas was determined using anti-Fas-PE antibody (PharMingen® CA) and flow cytometric analysis. Cell surface expression is measured as mean fluorescence intensity (MFI).

[1] = tested on: Adriamycin-resistant MCF7 cell line (MCF7-Adr); experiment: Apoptosis by FACS (hypodiploid fraction); assay type: cell-based, human; conditions: peptide-expressing MCF7-Adr; neo controls 3-fold; 36 h
Protocol: [Worded in the source for another cell line; this cell line is reported under the same test.] as §1

FEMX cells = experiment: Apoptosis by FACS (hypodiploid fraction); assay type: cell-based, human
Protocol: as §1

[2] = tested on: MCF7 breast cancer-derived cell line; experiment: Apoptosis by FACS (hypodiploid fraction); assay type: cell-based, human; conditions: peptide-expressing MCF7
Protocol: [Worded in the source for another cell line; this cell line is reported under the same test.] as §1

[3] = tested on: WM1552 early-phase melanoma cell line; experiment: Apoptosis by FACS (hypodiploid fraction); assay type: cell-based, human; conditions: peptide-expressing WM1552; UV-C 75 J/m2; 36 h
Protocol: as §1

[4] = tested on: 293T human kidney embryonic cells; experiment: Apoptosis by FACS (hypodiploid fraction); assay type: cell-based; conditions: peptide-expressing 293T; normal growth conditions
Protocol: [Worded in the source for another cell line; this cell line is reported under the same test.] as §1

[5] = tested on: human melanocytes (FOM71); experiment: Apoptosis by FACS (hypodiploid fraction); assay type: cell-based; conditions: transient peptide expression; UV 75 J/m^2; 36 h
Protocol: as §1

Fas = experiment: Cell surface expression of Fas by FACS; assay type: cell-based, human; conditions: peptide-expressing LU1205; control 122
Protocol: as §1

Fas protein = experiment: Western blot of overall Fas protein in melanoma cells; assay type: cell-based; conditions: peptide-expressing melanoma cells
SW1 melanoma tumors = experiment: Growth of SW1 tumors in FasL-deficient GLD mice; assay type: in vivo; conditions: compared with C3H
Protocol: Tumor growth and metastasis evaluation in vivo. Cell lines established in culture to constitutively or inducibly express the peptide were injected into mice subcutaneously (S.C.). LU1205, FEMX and SW-1 cells that expressed control or peptide II were trypsinized, resuspended in PBS and injected SC (1×10^6) into 6-7 week old mice in the lower flank. When the tumor reached the size of about 50 mm^3, 5 μM of SB203580 was injected into four areas of the LU1205 tumors every 4 days during a 2-week period. For FEMX tumors UCN-01 (2.5 mg/kg) was fed by gavage twice a day, three times per week for a total of 2 weeks. Tumor growth was monitored every two days. SW-1 cells expressing peptide II under tet-inducible vector were injected SC (1×10^6). When tumors reached a size of about 50 mm^3, the mice received doxycycline in their drinking water ([…]) for a total of 2-4 weeks. At the end of the experiment, the tumors were excised and weighed. The lungs and other organs were subjected to histopathological examination to detect metastatic lesions.

[6] = tested on: ATF2/c-Jun transcriptional activity; experiment: Jun2-Luciferase reporter in SW1 clones; assay type: cell-based, mouse
Protocol: (§2) Transient transfection and transcriptional analysis. Mouse melanoma tumors grown in culture were transfected with control vector or peptide II expressing luciferase or β-galactosidase constructs (Bhoumik et al., Clin. Cancer Res. 2001; 7(2):331-42). Transient transfection of different reporter constructs (0.5 cg) with expression vectors and pCMV-Cgal (0.25 Cg) into 5×10^5 melanoma cells was performed using Lipofectamine™ (Life Technologies-BRL). Transfection of the Jun2-luciferase construct permitted us to monitor activity of ATF2 and c-Jun. Jun2-Luc and TRE-Luc constructs were previously described (van Dam H., et al., EMBO J. 1993; 12:479-487; and van Dam H., et al., EMBO J. 1995; 14:1798-1811). Luciferase activity was determined using the Luciferase assay system (Promega®, Madison, Wis.) and normalized on the basis of β-galactosidase (β-Gal) levels in transfected cells. Proteins were prepared for β-Gal and Luciferase analysis at the selected time points after transfection.

[7] = tested on: TRE-based promoter (c-Jun/AP1); experiment: TRE-Luc reporter in c-Jun wild-type fibroblasts; assay type: cell-based
Protocol: [Worded in the source for another cell line; this cell line is reported under the same test.] as §2

JNK = experiment: In vitro phosphorylation of the peptide; assay type: biochemical
SW1 cells [8] = experiment: Thymidine incorporation (DNA synthesis); assay type: cell-based, mouse; conditions: peptide-expressing vs control cells
SW1 cells [9] = experiment: Cell cycle distribution after synchronization and serum stimulation; assay type: cell-based, mouse; conditions: 18-24 h after serum stimulation of synchronized cells
AP1 complex = conditions: previous studies; cited from earlier work

decrease in basal levels of ATF2 transcriptional activities ([6]; SW1 clones constitutively expressing peptide): 5 fold
ATF2 transcriptional activities in response to UV-treatment ([6]; SW1 clones, UV): decrease
Substance: peptide II: N-terminal polypeptide fragment of ATF2, amino acid residues 50-100, expressed from pcDNA3 with HA-penetratin tag (EMTLKFGPARNDSVIVADQTPTPTRFLKNCEEVGLFNELASPFENEFKKAS; also: HA-penetratin tag, position not given here; UniProt P15336 50-100, looked up, fragment)
increase in apoptosis comparable to neo expressing cells (LU1205 cells; Adriamycin + verapamil): 10 fold
increase in degree of apoptosis over control neo cells given Adriamycin and verapamil (LU1205 cells; Adriamycin + verapamil): 50%
apoptotic fraction of UV-treated cells (LU1205 cells; UV-C 75 J/m2, 36 h, neo control 15%): 38%
increase in the degree of cell death (LU1205 cells; higher doses (10 μM) of SB203580, 36 h): greater than 6 fold
increase in cell death (LU1205 cells; low doses of SB203580, 36 h): 3 fold
increase in the sensitivity to UV-induced apoptosis (LU1205 cells; treatment with JAK inhibitor AG490): 3 fold
increase in apoptosis following UV-treatment [1]: 8 fold
increase in the degree of UCN-01-elicited apoptosis (FEMX cells; peptide-expressing FEMX vs parent): > 3 fold
apoptotic fraction of UV-treated cells (FEMX cells; peptide-expressing FEMX, UV-C 75 J/m2, 36 h, neo control 13%): 28%
increase in sensitivity to UCN-01 elicited apoptosis [2]: ~2 fold
increase in degree of apoptosis following UV-treatment relative to non-irradiated cells ([2]; neo control 4-fold, 36 h): ~9 fold
effect on the basal level of apoptosis ([2]; no treatment): minimal effect
sensitization to UV-induced apoptosis [3]: no longer was able to elicit sensitization
increase in the degree of basal apoptosis [4]: 5 fold
sensitivity to undergo UV-induced apoptosis [5]: did not cause a significant increase
cell surface expression of Fas, mean fluorescence intensity (Fas): 186
overall level of Fas protein (Fas protein): increase in the overall level of Fas protein
blocking growth of SW1 tumors (SW1 melanoma tumors): as efficient in blocking growth
increase in the activities of TRE-Luc [7]: 200 fold
phosphorylation of the peptide by JNK (JNK): Neither JNK nor p38 was found capable of phosphorylating
reduction in DNA synthesis level (SW1 cells [8]): 50%
number of cells in the S-phase, lower than control cell population (SW1 cells [9]): 2 fold
inhibition of transcriptional activity mediated from the AP1 complex (AP1 complex): 3 fold
